Experiments:
[1] = target: NK1R (Homo sapiens, UniProt P25103); assay: Radioligand binding, competition for [3H]SP, CHO cells transfected with human NK1R; set-up: expressed in transfected cells; host or cells: CHO cells (ATCC); settings: competition for [3H]SP binding (0.6 nM)
Procedure: The affinity of EUC-001 for the human NK1R was assessed by radioligand binding assays using Chinese hamster ovary (CHO) cells transfected with the human NK1R. Radioligand binding studies, evaluating competition for [^3H]
Radioligand binding assays were performed using CHO cells (ATCC, Middlesex, UK) transfected with the human NK1R (accession number NM_001058). Assays were performed in 50 mM HEPES buffer (pH 7.4; Sigma-Aldrich, St Louis, MO, USA) containing BSA (0.04%; Sigma-Aldrich, St Louis, MO, USA), leupeptin (8 μg/mL; Sigma-Aldrich, St Louis, MO, USA), MnCl2 (3 mM; Sigma-Aldrich, St Louis, MO, USA) and phosphoramidon (2 μM; Sigma-Aldrich, St Louis, MO, USA). In total, 250 μL of membrane suspension was incubated with 125 μL of unlabelled EUC-001 (synthesized by Hoffmann-La Roche, Basel, Switzerland) dissolved in assay buffer, and 125 μL of [^3H]SP (final concentration 0.6 nM; Amersham Biosciences, Amersham, UK). Displacement curves were determined with seven concentrations of EUC-001. Following incubation (60 min at room temperature), the mixture was rapidly filtered through pre-soaked Whatman GF/C filters (Sigma-Aldrich, St Louis, MO, USA) and washed with 2 × 2 mL HEPES buffer (Sigma-Aldrich, St Louis, MO, USA), and bound radioactivity was measured by scintillation counting (Beckman Coulter, Brea, CA, USA). Assays were performed in triplicate in 2 separate experiments.

[2] = target: Serotonin 5-HT5A (Homo sapiens, UniProt P47898); assay: Cerep selectivity profiling, receptor antagonism; assay type: biochemical; settings: Serotonin 5-HT5A antagonism
Chain of Serotonin 5-HT5A (P47898 whole entry): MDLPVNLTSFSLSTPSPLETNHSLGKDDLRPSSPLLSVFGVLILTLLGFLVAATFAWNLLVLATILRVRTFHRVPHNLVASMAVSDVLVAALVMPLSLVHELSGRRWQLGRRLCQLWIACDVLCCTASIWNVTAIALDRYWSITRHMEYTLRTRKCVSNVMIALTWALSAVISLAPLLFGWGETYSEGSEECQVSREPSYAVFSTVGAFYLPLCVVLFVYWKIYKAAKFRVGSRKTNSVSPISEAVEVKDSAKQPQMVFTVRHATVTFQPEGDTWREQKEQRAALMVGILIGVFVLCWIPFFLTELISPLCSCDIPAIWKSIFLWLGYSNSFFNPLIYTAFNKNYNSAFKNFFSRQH
Procedure: (§1) The pharmacological specificity of EUC-001 was assessed using the commercially available selectivity profiling services provided by Cerep (Celle l’Evescault, France). Initially, the activity of EUC-001, at a fixed concentration of 10 μM, was evaluated in a range of assays to assess pharmacological selectivity relative to other cell-surface receptors, ion channels and transport proteins. Where any significant binding was detected, further assays were performed to quantify potential non-selective activity. […] In terms of this non-specific activity, the IC50s are approximately 3.6 log units greater than that required for NK1R antagonism.
(§2) The pharmacological specificity of EUC-001 was assessed using the commercially available selectivity profiling services provided by Cerep (Celle l’Evescault, France). For initial screens, the binding of EUC-001 (synthesized by Hoffmann-La Roche, Basel, Switzerland) at a fixed concentration of 10 μM was evaluated in a range of assays to assess pharmacological selectivity relative to other cell-surface receptors, ion channels and transport proteins.
(§3) For agonist activity, results are expressed as a percentage of the control agonist response induced by the selective NK1R agonist [Sar^9, Met(O2)^11]-substance P (100 nM) for a range of concentrations of EUC-001. Antagonist activity is expressed as a percentage change in the response induced by 3 nM [Sar^9, Met(O2)^11]-SP (R&D systems) across a range of concentrations of EUC-001. The EC50 values (concentration producing a half-maximal specific response) and IC50 values (concentration causing a half-maximal inhibition of the control specific agonist response) were determined by non-linear regression analysis of the concentration–response curves generated with mean replicate values using Hill equation curve fitting (Y = D + [(A − D)/(1 + (C/C50)nH)], where Y = specific response, D = minimum specific response, A = maximum specific response, C = compound concentration, and C50 = EC50 or IC50, and nH = slope factor). This analysis was performed using custom software developed at Cerep and validated by comparison with data generated by the commercial software SigmaPlot® 4.0 for Windows® (SPSS Inc., Chicago, IL, USA). For the antagonists, the apparent dissociation constants (KB) were calculated using the modified Cheng Prusoff equation (KB = IC50/(1 + (A/EC50A)), where A = concentration of reference agonist in the assay, and EC50A = EC50 value of the reference agonist).

[3] = target: T1, Muscarinic cholinergic M1 (Homo sapiens, UniProt P11229); assay: Cerep selectivity profiling, receptor antagonism; assay type: biochemical
T1 sequence (P11229 1-460): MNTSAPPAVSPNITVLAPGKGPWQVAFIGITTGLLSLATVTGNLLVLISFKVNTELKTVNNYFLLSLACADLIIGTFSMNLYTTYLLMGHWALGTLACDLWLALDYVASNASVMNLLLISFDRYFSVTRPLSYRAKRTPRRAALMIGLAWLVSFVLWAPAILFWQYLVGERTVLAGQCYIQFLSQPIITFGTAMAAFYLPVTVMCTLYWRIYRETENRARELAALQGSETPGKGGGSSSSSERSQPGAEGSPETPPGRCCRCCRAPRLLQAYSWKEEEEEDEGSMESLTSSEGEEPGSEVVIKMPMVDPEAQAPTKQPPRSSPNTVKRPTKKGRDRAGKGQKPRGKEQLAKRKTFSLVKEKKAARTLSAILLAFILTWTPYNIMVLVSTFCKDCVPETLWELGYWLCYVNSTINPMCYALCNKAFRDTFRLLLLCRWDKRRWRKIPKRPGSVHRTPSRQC
Procedure: as §1, §2, §3

[4] = target: Adenosine A2A (Homo sapiens, UniProt P29274); assay: Cerep selectivity profiling, receptor antagonism; assay type: biochemical
Chain of Adenosine A2A (P29274 whole entry): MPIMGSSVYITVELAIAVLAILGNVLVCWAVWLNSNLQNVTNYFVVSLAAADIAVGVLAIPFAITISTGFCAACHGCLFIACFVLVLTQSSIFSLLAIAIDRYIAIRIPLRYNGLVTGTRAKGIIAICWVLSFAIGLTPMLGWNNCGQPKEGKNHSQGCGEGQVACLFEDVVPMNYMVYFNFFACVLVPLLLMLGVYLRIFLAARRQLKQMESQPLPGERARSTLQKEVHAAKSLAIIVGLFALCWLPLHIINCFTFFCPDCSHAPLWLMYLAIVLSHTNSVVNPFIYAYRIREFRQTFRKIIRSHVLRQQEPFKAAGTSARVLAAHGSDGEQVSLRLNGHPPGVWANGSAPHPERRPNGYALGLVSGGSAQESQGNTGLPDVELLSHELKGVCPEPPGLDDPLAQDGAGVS
Procedure: as §1, §2, §3

[5] = target: Dopamine D2S (Homo sapiens, UniProt P14416); assay: Cerep selectivity profiling, receptor antagonism; assay type: biochemical
Chain of Dopamine D2S (P14416 1-414 isoform P14416-2): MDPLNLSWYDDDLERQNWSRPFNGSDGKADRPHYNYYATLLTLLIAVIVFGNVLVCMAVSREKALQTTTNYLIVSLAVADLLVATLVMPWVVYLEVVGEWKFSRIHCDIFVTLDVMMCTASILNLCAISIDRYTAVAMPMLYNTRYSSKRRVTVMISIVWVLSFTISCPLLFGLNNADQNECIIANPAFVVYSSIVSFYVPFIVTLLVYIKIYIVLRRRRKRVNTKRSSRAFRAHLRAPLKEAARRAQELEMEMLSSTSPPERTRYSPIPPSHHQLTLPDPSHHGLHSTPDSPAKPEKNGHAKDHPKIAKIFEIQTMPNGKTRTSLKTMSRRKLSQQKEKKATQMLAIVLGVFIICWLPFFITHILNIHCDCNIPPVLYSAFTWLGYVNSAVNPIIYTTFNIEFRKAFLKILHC
Procedure: as §1, §2, §3

[6] = target: Histamine H2 (Homo sapiens, UniProt P25021); assay: Cerep selectivity profiling, receptor antagonism; assay type: biochemical
Chain of Histamine H2 (P25021 whole entry): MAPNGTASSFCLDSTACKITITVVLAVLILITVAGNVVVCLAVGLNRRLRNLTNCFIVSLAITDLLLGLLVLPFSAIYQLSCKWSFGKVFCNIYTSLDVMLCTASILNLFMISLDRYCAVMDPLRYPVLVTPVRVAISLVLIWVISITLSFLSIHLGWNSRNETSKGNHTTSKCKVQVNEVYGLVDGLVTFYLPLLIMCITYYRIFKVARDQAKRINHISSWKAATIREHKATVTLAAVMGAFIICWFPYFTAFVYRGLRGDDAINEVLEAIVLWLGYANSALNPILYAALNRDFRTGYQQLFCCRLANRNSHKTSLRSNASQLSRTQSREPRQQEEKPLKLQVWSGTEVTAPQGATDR
Procedure: as §1, §2, §3

[7] = target: Melanocortin MC4 (Homo sapiens, UniProt P32245); assay: Cerep selectivity profiling, receptor antagonism; assay type: biochemical
Chain of Melanocortin MC4 (P32245 whole entry): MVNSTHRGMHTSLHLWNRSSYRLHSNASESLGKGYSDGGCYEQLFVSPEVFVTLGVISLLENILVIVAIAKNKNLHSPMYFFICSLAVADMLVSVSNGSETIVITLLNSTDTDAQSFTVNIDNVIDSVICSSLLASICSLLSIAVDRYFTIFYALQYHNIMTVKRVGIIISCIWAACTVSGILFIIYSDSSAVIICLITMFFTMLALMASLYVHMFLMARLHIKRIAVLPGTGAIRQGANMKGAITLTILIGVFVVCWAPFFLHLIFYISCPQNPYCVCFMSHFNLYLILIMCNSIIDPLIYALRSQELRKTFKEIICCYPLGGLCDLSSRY
Procedure: as §1, §2, §3

[8] = target: T2, Adenosine A3 (Homo sapiens, UniProt P0DMS8); assay: Cerep selectivity profiling, receptor antagonism; assay type: biochemical
T2 sequence (P0DMS8 1-318): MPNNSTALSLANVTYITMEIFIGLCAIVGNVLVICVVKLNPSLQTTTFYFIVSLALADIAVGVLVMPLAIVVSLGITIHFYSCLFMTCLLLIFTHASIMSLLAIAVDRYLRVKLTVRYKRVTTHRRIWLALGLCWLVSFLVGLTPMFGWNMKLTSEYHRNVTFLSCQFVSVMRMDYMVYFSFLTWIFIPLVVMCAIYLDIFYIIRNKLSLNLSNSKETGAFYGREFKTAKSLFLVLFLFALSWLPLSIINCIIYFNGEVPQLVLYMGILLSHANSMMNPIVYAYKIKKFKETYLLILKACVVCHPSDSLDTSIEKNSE
Procedure: as §1, §2, §3

[9] = tested on: rodent model of TBI; assay: Motor function after TBI, rotarod test; assay type: in vivo, Sprague Dawley rats; settings: rat TBI, 10 mg/kg 30 min post-injury, 10 days
Description: The maximum duration of the task was 120 s.
Injury was induced in halothane-anesthetized (ProVet) male Sprague Dawley rats (400 ± 20 g) using acceleration-induced impact TBI [29, 93]. This model involves impacting a 10 mm diameter, 3 mm thick stainless steel disc fixed centrally to the exposed skull between the lambda and bregma with an accelerating impactor. The impactor was a 450 g brass weight dropped from a height of 2 m. […] All animals were fed and watered ad libitum before the induction of injury. During both surgery and the immediate recovery phase, rat rectal temperature was maintained using a thermostatically controlled heating pad. Immediately after injury, animals were manually ventilated until stable respiration was restored, usually in <5 min. After injury, all wounds were sutured. Blood pressure was monitored, both before and after injury, using a femoral arterial line.
Motor and cognitive outcomes in animals (n = 6 per group) were assessed using the rotarod and Barnes maze, respectively, as described in detail elsewhere [64]. The rotarod consists of a motorized rotating assembly of 18 rods (1 mm in diameter) upon which the animals were placed. The rotational speed of the device was increased from 0 to 30 r.p.m. and the duration (in seconds) when the animals either completed the task, fell from the rods, or gripped the rods and spun for two consecutive revolutions rather than walking actively was recorded as the rotarod score. […] After activating the bright lights and aversive auditory stimulus, the latency (in seconds) for the animal to locate and enter the escape tunnel was recorded. All animals were pretrained on both functional outcome tests twice per day over 5 days before injury to establish a normal, uninjured baseline.

Chain of NK1R (P25103 whole entry): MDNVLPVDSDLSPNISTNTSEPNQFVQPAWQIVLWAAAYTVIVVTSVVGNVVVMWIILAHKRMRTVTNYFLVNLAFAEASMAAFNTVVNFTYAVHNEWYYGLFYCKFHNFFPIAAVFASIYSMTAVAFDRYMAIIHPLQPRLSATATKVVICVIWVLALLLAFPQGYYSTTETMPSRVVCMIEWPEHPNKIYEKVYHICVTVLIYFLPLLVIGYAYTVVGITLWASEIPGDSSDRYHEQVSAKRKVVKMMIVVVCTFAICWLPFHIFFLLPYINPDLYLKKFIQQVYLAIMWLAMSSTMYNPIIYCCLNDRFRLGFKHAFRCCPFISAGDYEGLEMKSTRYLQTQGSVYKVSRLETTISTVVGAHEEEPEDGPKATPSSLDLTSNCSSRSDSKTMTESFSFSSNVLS

`Cc1ccccc1-c1cc(N2CCN(C)CC2)ncc1C(=O)N(C)Cc1cc(C(F)(F)F)cc(C(F)(F)F)c1` [EUC-001, N-(3,5-Bis-trifluoromethyl-benzyl)-N-methyl-6-(4-methyl-piperazine-1-yl)-4-o-tolyl-nicotinamide] showed a Ki [1] of 0.000575 µM, an IC50 [2] of 4 µM and an IC50 [3] of 3.3 µM. The IC50 [4] was 30 µM, the “IC50 (M)” value [5] was “Not calculable” and the IC50 [6] was 16 µM. The IC50 [7] was 13 µM, the “IC50 (M)” value [8] was “Not calculable” and the “Motor function, rotarod score” value [9] was “much smaller decline in motor function”.

Source: article PMC10970734, “Identification of an Intravenous Injectable NK1 Receptor Antagonist for Use in Traumatic Brain Injury” (International Journal of Molecular Sciences, 2024)
